Here are results for two compounds from patent publication US9511341B2, “Method for preparing acetazolamide sodium powder” (SCI Pharmtech, Inc., priority 2013, dated 2016).

Structures are written as SMILES.

For data set [1] the following is noted: cited from earlier work.
A short description of data set [2]: Impurity D (hydrolysis product) in spray dried powder by USP HPLC method. The class given is physicochemical. The settings on record: air vs N2 as drying gas, judged by difference of impurity D. The protocol:
In the developed spray drying process, the spray dryer was initiated in the preferred conditions (such as temperature and flow rate of the heated gas, and pneumatic pressure). In the meantime, an acetazolamide sodium solution was prepared by dispersing the acetazolamide powder into water in a flask inerted with N2 and then mixing the acetazolamide suspension with sodium hydroxide solution. After stirring for 15 min, an acetazolamide sodium solution was obtained and pumped into the spray dryer to proceed the drying process. During the drying process, the acetazolamide sodium solution was fed and atomized into mist by a two-fluid nozzle, and then the water was rapidly vaporized and accompanied with the nucleation of acetazolamide sodium particles in the gas flow of drying chamber. The formed particles were immediately carried into the cyclone, in which the separation of gas-solid was performed. The uncollected particles were recovered by the wet scrubber connected to the exit of cyclone. Finally, the acetazolamide sodium powder in the collector was examined by a halogen moisture analyzer and an analytical HPLC method specified in the current USP monograph of acetazolamide for injection.
In Example 2, the amount of impurity D in the acetazolamide free base was about 0.098-0.110 wt %. […]

As for `CC(=O)Nc1nnc(S(N)(=O)=O)s1` [acetazolamide], the Solubility in water entry in data set [1] is on record as “extremely low solubility in water”. `CC(=O)Nc1nnc(S(N)(=O)=O)s1` [acetazolamide sodium powder, Acetazolamide sodium]: in data set [2], the “Oxygen sensitivity during spray drying” value was “not oxygen-sensitive”. In data set [1], the Solubility in water result is “easily dissolves in water”.
